One assay concerns influenza A virus A/Aichi/2/68 (H3N2) on MDCK cells. Kind of assay: Cytopathic effect (CPE) assay. In kind it is cell-based. The following applies: @ 50 μM. Background: Protection from cytopathic effect is a common read-out in antiviral testing.
Consider `CCN(Cc1ccc(Cl)cc1)Cc1cc(=O)c(O)c2n1CCN(C(C)C)C2=O.O=C(O)C(F)(F)F`, for which the “CPE (% CPE reduction)” value stood at 18% @ 50 μM.

For `CC(C)N1CCn2c(CN(C)Cc3cccc(Cl)c3)cc(=O)c(O)c2C1=O.O=C(O)C(F)(F)F`, the “CPE (% CPE reduction)” value is reported as 30.8% @ 50 μM.

Still in this assay, the particulars now being: Influenza A virus, 48 hrs, the 2nd table.
Broadly, the IC50 is the concentration at which inhibition is half-maximal. A low value points to greater potency. As to `CCCN(Cc1cccc(-c2ccccc2)c1)Cc1cc(=O)c(O)c2n1CCN(C(C)C)C2=O`, the IC50 is above 50000 nM.

In turn, `CC(C)N1CCn2c(CNCc3ccccc3-c3ccccc3)cc(=O)c(O)c2C1=O` had an IC50 above 50000 nM.

The molecule `CC(C)N1CCn2c(CN(Cc3cccc(-c4ccccc4)c3)C3CC3)cc(=O)c(O)c2C1=O` gave an IC50 above 50000 nM.

`CC(C)N1CCn2c(CN(Cc3ccc(-c4ccccc4)cc3)C3CC3)cc(=O)c(O)c2C1=O`: the IC50 is above 50000 nM.

Take `CC(C)N1CCn2c(CN(C)Cc3ccc(Cl)cc3)cc(=O)c(O)c2C1=O`: the IC50 is above 50000 nM.

`CC(C)N1CCn2c(CN(C)Cc3ccccc3)cc(=O)c(O)c2C1=O` showed an IC50 above 50000 nM.

In turn, `CC(C)N1CCn2c(CN(Cc3ccccc3)C(=O)C3CC(F)(F)C3)cc(=O)c(O)c2C1=O` displayed an IC50 above 50000 nM.

Regarding `CCCN(Cc1ccccc1-c1ccccc1)Cc1cc(=O)c(O)c2n1CCN(C(C)C)C2=O.O=C(O)C(F)(F)F`, the IC50 is above 50000 nM.

`CCCN(Cc1cc(=O)c(O)c2n1CCN(C(C)C)C2=O)C1(c2ccccc2)CCCC1` displayed an IC50 above 50000 nM.

`CCCN(Cc1cc(=O)c(O)c2n1CCN(C(C)C)C2=O)CC1(c2ccccc2)CCCC1` registered an IC50 above 50000 nM.

Consider `CCCN(Cc1cccc2ccccc12)Cc1cc(=O)c(O)c2n1CCN(C(C)C)C2=O`, for which the IC50 is above 50000 nM.

The molecule `CCCN(Cc1ccc(-c2ccccc2)cc1)Cc1cc(=O)c(O)c2n1CCN(C(C)C)C2=O` displayed a 50% inhibitory concentration (IC50) above 50000 nM.

In turn, `CCN(Cc1ccccc1)Cc1cc(=O)c(O)c2n1CCN(C(C)C)C2=O` showed an IC50 above 50000 nM.

A further assay concerns the target whole RNP complex of IAV strain A/PR/8/34 (Influenza A virus, UniProt P03433). The experiment in a line: Transcription assay (TA assay). In kind it is biochemical. Conditions: RNPs of A/PR/8/34, capped RNA substrate.
Molecule `CCCN(Cc1cccc(-c2ccccc2)c1)Cc1cc(=O)c(O)c2n1CCN(C(C)C)C2=O` returned an IC50 of 690 nM.

For `CC(C)N1CCn2c(CNCc3ccccc3-c3ccccc3)cc(=O)c(O)c2C1=O`, the IC50 turned out to be 535 nM.

Regarding `CC(C)N1CCn2c(CN(Cc3cccc(-c4ccccc4)c3)C3CC3)cc(=O)c(O)c2C1=O`, the IC50 turned out to be 533 nM.

Molecule `CCN(Cc1ccc(Cl)cc1)Cc1cc(=O)c(O)c2n1CCN(C(C)C)C2=O.O=C(O)C(F)(F)F` showed an IC50 of 682 nM.

In the case of `CC(C)N1CCn2c(CN(Cc3ccc(-c4ccccc4)cc3)C3CC3)cc(=O)c(O)c2C1=O`, it took 5310 nM to reach half-maximal inhibition (IC50).

In turn, `CC(C)N1CCn2c(CN(C)Cc3cccc(Cl)c3)cc(=O)c(O)c2C1=O.O=C(O)C(F)(F)F` returned an IC50 of 81 nM.

In turn, `CC(C)N1CCn2c(CN(C)Cc3ccc(Cl)cc3)cc(=O)c(O)c2C1=O` returned a concentration for half-maximal inhibition (IC50) of 2110 nM.

With `CC(C)N1CCn2c(CN(C)Cc3ccccc3)cc(=O)c(O)c2C1=O`, it took 804 nM to reach half-maximal inhibition (IC50).

Molecule `CC(C)N1CCn2c(CN(Cc3ccccc3)C(=O)C3CC(F)(F)C3)cc(=O)c(O)c2C1=O` showed an IC50 of 2980 nM.

As for `CCCN(Cc1ccccc1-c1ccccc1)Cc1cc(=O)c(O)c2n1CCN(C(C)C)C2=O.O=C(O)C(F)(F)F`, the “TA IC50” value is “in- soluble”.

In the case of `CCCN(Cc1cc(=O)c(O)c2n1CCN(C(C)C)C2=O)C1(c2ccccc2)CCCC1`, the IC50 worked out at 870 nM.

In turn, `CCCN(Cc1cc(=O)c(O)c2n1CCN(C(C)C)C2=O)CC1(c2ccccc2)CCCC1` returned an IC50 of 452 nM.

Turning to `CCCN(Cc1cccc2ccccc12)Cc1cc(=O)c(O)c2n1CCN(C(C)C)C2=O`, inhibition was half-maximal at 1020 nM (IC50).

`CCCN(Cc1ccc(-c2ccccc2)cc1)Cc1cc(=O)c(O)c2n1CCN(C(C)C)C2=O`: the IC50 worked out at 63800 nM.

Turning to `CCN(Cc1ccccc1)Cc1cc(=O)c(O)c2n1CCN(C(C)C)C2=O`, inhibition was half-maximal at 1560 nM (IC50).

(Values after US20160002226A1, “PYRI[…] AND THEIR USE IN THE TREATMENT, AMELIORATION OR PREVENTION OF INFLUENZA” (F. Hoffmann-La Roche AG, priority 2014, published 2016).)
